Read-outs that look alike come from different tables or passages of the source. Where a SMILES comes first, the peptide text is derived from it. Bridges are numbered along the chain shown (N, C = ends). [ ]: non-standard residue; d: D form.
How the values were obtained:
C. albicans 529L = type: cell-based
human erythrocytes = experiment: Hemolytic assay; type: cell-based; settings: for hemolytic activity, in words: compared to Melittin
Method: Hemolytic activity was measured after an existing protocol^13. We obtained blood from two voluntary donors (sample collection had been previously approved by the Ethical Committee of the University Hospital of Tübingen, Germany) and 1 ml blood was washed with PBS two times. Afterwards we centrifuged the blood at 1000 g and performed a 1% (v/v) blood suspension in PBS. The blood suspension was incubated with different peptide concentrations (final concentration 0.5%) for one hour at 37° C. Then the samples were centrifuged at 1000 g for 10 minutes and the supernatant was collected and measured at 414 nm. […] These experiments were carried out in duplicates.

S. aureus USA300 = type: cell-based
Method: (§1) The tested bacteria were incubated overnight in 1×TSB broth, centrifuged and washed with 10 mM sodium phosphate buffer containing 1% (w/v) TSB broth. 5×10^5 cfu/ml bacteria were mixed with different peptide concentrations in 10 mM sodium phosphate buffer with 1% (w/v) TSB (final volume 100 μl) and incubated for 2 hours at 37° C. Afterwards we added 100 μl 2×TSB broth and we measured the optical density at 600 nm (Spark 10M, Tecan, Austria). Bacterial growth was monitored for 12 hours, growing at 37° C. with shaking during the measurements each 30 minutes, except for Akkermansia muciniphila which were incubated at 37° C. in an anaerobic jar and growth was measured after 72 hours.

E. coli JM83 = type: cell-based
Method: as §1

S. aureus ATCC 25923 = type: cell-based
Method: as §1

Y. enterocolitica = type: cell-based
Method: as §1

P. aeruginosa ATCC 27853 = type: cell-based
Method: as §1

A. baumannii 4-MRGN = type: cell-based
Method: as §1

P. aeruginosa 4-MRGN = type: cell-based
Method: as §1

A. baumannii DSM 30007 = type: cell-based
Method: as §1

K. pneumoniae 3-MRGN = type: cell-based
Method: as §1

P. aeruginosa XPAT2 = type: cell-based
Method: as §1

P. aeruginosa XPAT1 = type: cell-based
Method: as §1

E. faecium 475747 = type: cell-based
Method: as §1

P. aeruginosa PAO1 = type: cell-based
Method: as §1

E. faecium DSM 20477 = type: cell-based
Method: as §1

K. pneumoniae DSM 30104 = type: cell-based
Method: as §1

CaCo2/TC7 cells = system: CaCo2/TC7 cells
Method: CaCo2/TC7 (X, X) and HT29 MTX […] […] Experiments were carried out in duplicates.

E. faecalis ATCC 19433 = experiment: Turbidity assay, MIC by optical density after 18 h; type: cell-based
commensal bacteria = experiment: Radial diffusion assay, HD-5 fragments; type: cell-based; settings: 4 μg fragment, 2 μg full-length peptide; commensal bacteria (FIG. 3)
Method: In the RDA 2 μg of the full length and 4 μg of each fragment were used. An inhibition zone greater than 5 mm was determined as high activity, between 2.5 and 5 mm as low activity and 2.5 mm were the diameter of the punched well and therefore no activity.
(§2) Antimicrobial activity of all peptides was tested with a modified radial diffusion assay from Lehrer et al^12 Shortly described, log-phase bacteria grew (anaerobic bacteria with AnaeroGen, Oxoid in anaerobic jars) in liquid tryptic soy broth (TSB) (Becton Dickinson). After several wash steps in 10 mM sodium phosphate buffer pH 7.4, 4×10^6 cfu/ml was used per assay. To measure the antibacterial effect of the identified peptide fragments, the bacteria were incubated in 10 mM sodium phosphate (pH 7.4) containing 0.3 mg/ml TSB powder and 1% (w/v) low EEO-agarose (Applichem). Peptide fragments were then pipetted into punched wells and allowed to diffuse for 3 hours at 37° C. After that a nutrient rich gel with 6% TSB (w/v) and 1% agarose in 10 mM sodium phosphate buffer was poured on top of the first gel. After 24 hours the inhibition zones were measured. […] All experiments were carried out at least three times.

E. coli MC1000 = experiment: Transmission electron microscopy of peptide treated bacteria; type: cell-based; settings: 200 μg/ml, 2 hours
Method: Transmission electron microcscopy experiments were performed as previously described^11. 6×10^8 cfu E. coli MC1000 was incubated with 200 μg/ml of each peptide for 2 hours. Bacteria were fixed in Karnovsky's fixative, embedded in agarose, coagulated, cut in small blocks and fixed again in Karnovsky's solution. After post-fixation and embedding in glycid ether blocks were cut using an ultra-microtome. Sections (30 nm) were mounted on copper grids and analyzed using a Zeiss LIBRA 120 transmissions electron microscope.

[1] = Incubation of reduced peptide with human duodenal fluid, LC/MS; type: in vitro ADME; settings: after reduction with 2 mM TCEP; duodenal fluid 30 minutes at 37° C.
Method: 2.5 μg of HD-5 or HD-6 were incubated in 50 mM NH4HCO3 buffer (pH 8.0) (Fluka) with 2 mM tris(2-carboxyethyl) phosphine for 15 minutes at 37° C. Afterwards human duodenal fluid was added and incubated for additional 30 minutes at 37° C. At last, formic acid and acetonitrile was added in a final concentration of 0.5% and 10%, respectively, and analyzed the samples by mass spectrometry. Mass spectrometry was performed as a LC/MS system using an Agilent 1200 series HPLC with an Agilent Advanced Bio Peptide Map (2.1×150 mm, 2.7 μm) column with a flow of 0.4 ml/min at 55° C. column temperature and a 6540 UHD Q-TOF LC/MS system (Agilent) for mass analysis. The samples were separated by a gradient of acetonitrile in 0.1% formic acid. The gradient started at 2% acetonitrile for 4 minutes and then increased during 35 minutes to 45%. Mass spectrometric analyses were performed in single MS mode from 100 to 3400 m/z with positive ion polarity and were analyzed by Agilent MassHunter Quantitative Analysis B 06.00 software.

pathogenic bacteria = experiment: Radial diffusion assay, HD-5 fragments; type: cell-based; settings: pathogenic Gram-positive and Gram-negative bacteria (FIG. 4)
Method: A heat map system with high activity (inhibition zone in the RDA>5 mm), low activity (2.5 to 5 mm) and no activity (2.5 mm) was used.
as §2

[2] = C. albicans 529L, after 24 hours (Table 5)
[3] = S. aureus USA300, after 12 hours
[4] = S. aureus ATCC25923, after 12 hours
[5] = Y. enterocolitica, after 12 hours
[6] = P. aeruginosa ATCC 27853, after 12 hours
[7] = A. baumannii 4-MRGN, after 12 hours
[8] = P. aeruginosa 4-MRGN, after 12 hours
[9] = A. baumannii DSM30007, after 12 hours
[10] = K. pneumoniae 3-MRGN, after 12 hours
[11] = P. aeruginosa XPAT2, after 12 hours
[12] = P. aeruginosa XPAT1, after 12 hours
[13] = E. faecium 475747, after 12 hours
[14] = P. aeruginosa PAO1, after 12 hours
[15] = E. faecium DSM20477, after 12 hours
[16] = K. pneumoniae DSM30104, after 12 hours

Method for HT29 MTX E29 cells: CaCo2/TC7 (X, X) and HT29 MTX [MUT] (X, X) were seed in a 96 well plate in 90 μl media (1500 cells/well) and incubated at 37° C. for 24 hours. Afterwards peptide treatment with different concentrations started (volume of 10 μl solved in 0.01% acetic acid) and cells were incubated for 96 hours. Untreated and 1% Triton-X treated cells were used as controls. After the incubation we added 100 μl of CellTiter Glo2.0 solution and started our measurement protocol. The measurement was carried out in a Spark 10M (Tecan), starting with 12 minutes continuously shaking followed by the luminescence measurement with an integration time from 1 second per well. Experiments were carried out in duplicates.

Row | Molecule | cytotoxic effects compared to CaCo2/TC7 (HT29 MTX E29 cells) | MIC (C. albicans 529L; 529L, 24 h) | MIC (C. albicans 529L; [2]) | hemolytic activity, in words (human erythrocytes) | MIC (S. aureus USA300; [3]) | MIC (S. aureus USA300; USA300, 12 h) | MIC (E. coli JM83; E. coli JM83, after 12 hours) | MIC (E. coli JM83; JM83, 12 h) | MIC (S. aureus ATCC 25923; ATCC 25923, 12 h) | MIC (S. aureus ATCC 25923; [4]) | MIC (Y. enterocolitica; 12 h) | MIC (Y. enterocolitica; [5]) | MIC (P. aeruginosa ATCC 27853; ATCC 27853, 12 h) | MIC (P. aeruginosa ATCC 27853; [6]) | MIC (A. baumannii 4-MRGN; 4-MRGN, 12 h) | MIC (A. baumannii 4-MRGN; [7]) | MIC (P. aeruginosa 4-MRGN; 4-MRGN, 12 h) | MIC (P. aeruginosa 4-MRGN; [8]) | MIC (A. baumannii DSM 30007; [9]) | MIC (A. baumannii DSM 30007; DSM 30007, 12 h) | other results
1 | CC(=O)N[C@@H](C(=O)N[C@H](CS)C(=O)N[C@H](CO)C(=O)N[C@H](CS)C(=O)N[C@H](CCCNC(=N)N)C(=O)N[C@H](CC(C)C)C(=O)N[C@@H](C(=O)N[C@H](Cc1ccccc1)C(=O)N[C@H](CS)C(=O)N[C@H](CCCNC(=N)N)C(=O)N[C@H](CCCNC(=N)N)C(N)=O)C(C)C)C(C)C [HNP-41-11mod, Ac-vcscrlvfcrr-NH2] (Ac-[dV][dC][dS][dC][dR][dL][dV][dF][dC][dR][dR]-NH2) | more susceptible | 25 µM | 34.6 µg/mL | low hemolytic activity | 17.3 µg/mL | 12.5 µM | 8.6 µg/mL | 6.25 µM | 3.125 µM | 4.3 µg/mL | 6.25 µM | 8.6 µg/mL | 6.25 µM | 8.6 µg/mL | 6.25 µM | 8.6 µg/mL | 6.25 µM | 8.6 µg/mL | 8.6 µg/mL | 6.25 µM | hemolytic toxicity (human erythrocytes; at ≤18.75 μM): negligible toxicity; MIC (K. pneumoniae 3-MRGN; 3-MRGN, 12 h): 6.25 µM; MIC (K. pneumoniae 3-MRGN; [10]): 8.6 µg/mL; MIC (P. aeruginosa XPAT2; [11]): 17.3 µg/mL; MIC (P. aeruginosa XPAT2; XPAT2, 12 h): 12.5 µM; MIC (P. aeruginosa XPAT1; [12]): 17.3 µg/mL; MIC (P. aeruginosa XPAT1; XPAT1, 12 h): 12.5 µM; MIC (E. faecium 475747; 475747, 12 h): 3.125 µM; MIC (E. faecium 475747; [13]): 4.3 µg/mL; MIC (P. aeruginosa PAO1; [14]): 17.3 µg/mL; MIC (P. aeruginosa PAO1; PAO1, 12 h): 12.5 µM; MIC (E. faecium DSM 20477; DSM 20477, 12 h): 6.25 µM; MIC (E. faecium DSM 20477; [15]): 8.6 µg/mL; MIC (K. pneumoniae DSM 30104; DSM 30104, 12 h): 6.25 µM; MIC (K. pneumoniae DSM 30104; [16]): 8.6 µg/mL; cytotoxic effects (CaCo2/TC7 cells): minor cytotoxic effects
2 | CC(C)C[C@H](NC(=O)[C@H](CCCNC(=N)N)NC(=O)[C@H](CS)NC(=O)[C@H](CO)NC(=O)[C@H](CS)NC(=O)[C@@H](N)C(C)C)C(=O)N[C@H](C(=O)N[C@@H](Cc1ccccc1)C(=O)N[C@@H](CS)C(=O)N[C@@H](CCCNC(=N)N)C(=O)N[C@@H](CCCNC(=N)N)C(=O)O)C(C)C [HNP-41-11] (H-VCSCRLVFCRR-OH; N-terminus and C-terminus assumed) | more susceptible | 100 µM | 134.2 µg/mL | low hemolytic activity | 67.1 µg/mL | 50 µM | 8.4 µg/mL | 6.25 µM | 12.5 µM | 16.8 µg/mL | 12.5 µM | 16.8 µg/mL | 12.5 µM | 16.8 µg/mL | 25 µM | 33.5 µg/mL | 50 µM | 67.1 µg/mL | 8.4 µg/mL | 6.25 µM | MIC (K. pneumoniae 3-MRGN; 3-MRGN, 12 h): 25 µM; MIC (K. pneumoniae 3-MRGN; [10]): 33.5 µg/mL; MIC (P. aeruginosa XPAT2; [11]): 16.8 µg/mL; MIC (P. aeruginosa XPAT2; XPAT2, 12 h): 12.5 µM; MIC (P. aeruginosa XPAT1; [12]): 16.8 µg/mL; MIC (P. aeruginosa XPAT1; XPAT1, 12 h): 12.5 µM; MIC (E. faecium 475747; 475747, 12 h): 3.125 µM; MIC (E. faecium 475747; [13]): 4.2 µg/mL; MIC (P. aeruginosa PAO1; [14]): 16.8 µg/mL; MIC (P. aeruginosa PAO1; PAO1, 12 h): 12.5 µM; MIC (E. faecium DSM 20477; DSM 20477, 12 h): 12.5 µM; MIC (E. faecium DSM 20477; [15]): 16.8 µg/mL; MIC (K. pneumoniae DSM 30104; DSM 30104, 12 h): 25 µM; MIC (K. pneumoniae DSM 30104; [16]): 33.5 µg/mL; cytotoxic effects (CaCo2/TC7 cells): minor cytotoxic effects
3 | CTRATYCRG [random amino acid structure of HD51-9] | – | – | – | – | – | – | – | – | – | – | – | – | – | – | – | – | – | – | – | – | antimicrobial activity, in words (E. faecalis ATCC 19433): complete dissolving of bactericidal effects
4 | CC[C@H](C)[C@@H]1NC(=O)[C@H](CCC(=O)O)NC(=O)[C@@H]2CSSC[C@@H]3NC(=O)[C@H](Cc4ccc(O)cc4)NC(=O)[C@@H](NC(=O)[C@@H](NC(=O)[C@H](C)N)[C@@H](C)O)CSSC[C@@H](C(=O)N[C@@H](CCCNC(=N)N)C(=O)O)NC(=O)[C@H](CSSC[C@H](NC(=O)[C@H](CCCNC(=N)N)NC(=O)CNC(=O)[C@H]([C@@H](C)O)NC(=O)[C@H](CCCNC(=N)N)NC3=O)C(=O)N[C@@H](C)C(=O)N[C@@H]([C@@H](C)O)C(=O)N[C@@H](CCCNC(=N)N)C(=O)N[C@@H](CCC(=O)O)C(=O)N[C@@H](CO)C(=O)N[C@@H](CC(C)C)C(=O)N[C@@H](CO)C(=O)NCC(=O)N[C@@H](C(C)C)C(=O)N2)NC(=O)[C@H](CC(C)C)NC(=O)[C@H](CCCNC(=N)N)NC(=O)[C@H](Cc2ccc(O)cc2)NC(=O)[C@H](CC(C)C)NC(=O)[C@H](CCCNC(=N)N)NC(=O)CNC(=O)[C@H](CO)NC1=O [HD-5, reference compound] (H-ATCYCRTGRCATRESLSGVCEISGRLYRLCCR-OH; disulfide 3-31, 5-20, 10-30 (inferred); N-terminus and C-terminus assumed) | – | – | – | – | – | – | – | – | – | – | – | – | 25 µM | – | 6.25 µM | – | – | – | – | – | antimicrobial activity in radial diffusion assay (commensal bacteria): broad antimicrobial activity; phenotype of peptide treated bacteria (TEM) (E. coli MC1000): detached inner membrane and small vesicular structures around the bacteria cell envelope; susceptibility to proteolytic digestion [1]: digested by intestinal proteases; MIC (P. aeruginosa ATCC 27853; P. aeruginosa ATCC 27853, after 12 hours, listed as fl): 89.7 µg/mL; MIC (A. baumannii 4-MRGN; A. baumannii 4-MRGN, after 12 hours, listed as fl): 22.4 µg/mL; antimicrobial activity in radial diffusion assay (pathogenic bacteria): strong effect on the growth of every tested bacterium
